Results as given in ChEMBL document CHEMBL1201862, “PubChem BioAssay data set” (2004).
Active and inactive are the calls of the source.

Assays:
[1] = molecular target: T1, E3 ubiquitin-protein ligase XIAP (Homo sapiens, UniProt P98170); test: small molecules displacing peptide from XIAP – biochemical, IAP family, fluorescence polarization (AID 1018); type: functional
[2] = molecular target: T1, E3 ubiquitin-protein ligase XIAP; test: Counter Screen using XIAP-Bir3 for Chemical Antagonists of Bir1/2 domains of IAP-family anti-apoptotic proteins. [Related pubchem assays (depositor defined):AID1018, AID1449, AID1514, AID1638, AID1749, AID1750, AID488957, AID488963]
HEK293 [3] = test: inhibition of NOD1-driven NF-kB reporter – cell-based, luminescence, uHTS, primary screen (AID 1578); type: functional; conditions: Homo sapiens
Paired box protein Pax-8 = Paired box protein Pax-8 (Homo sapiens, UniProt Q06710); test: PAX8 transcriptional activity inhibition in RMG-I – RMG-I cells, luciferase, cherry-pick, dose response (AID 687027); type: functional, cell-based;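 also: luciferase reporter driven by Pax8 target thyroperoxidase promoter measured by SteadyGlo luminescence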
[4] = NIH3T3 cell viability loss – ATP luminescence, mouse fibroblasts, counter-screen, dose response (AID 2010); type: functional, cell-based;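 also: cells exposed to compound for about 90 hours before reading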
HEK293 [5] = test: cells; type: functional, cell-based; conditions: Homo sapiens
[6] = Trypanosoma cruzi growth suppression in host cells – NIH3T3 host cells, beta-gal luminescence, confirmation (AID 2044); type: functional, cell-based;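 also: intracellular parasites grown in NIH/3T3 mouse fibroblasts as host cells; luminescent beta-galactosidase reporter signal from transgenic T. cruzi replicating inside host cells; inhibitors lower the luminescence signal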
HEK293 [7] = test: cells; type: functional, cell-based; conditions: Homo sapiens; remark: listed apart in the source
[8] = molecular target: Nucleotide-binding oligomerization domain-containing protein 2 (Homo sapiens, UniProt Q9HC29); test: inhibition of NOD2-driven NF-kB reporter – cell-based, luminescence, uHTS, HEK293 (AID 1566); type: functional
Vero [9] = test: cells; type: functional; conditions: Chlorocebus sabaeus
HEK293 [10] = test: NOD2 signaling inhibitors in MDP-stimulated cells, cell-based, uHTS, luminescence (AID 2001); type: functional; conditions: Homo sapiens
HEK293 [11] = test: cells; type: functional, cell-based; conditions: Homo sapiens; remark: listed apart in the source
Vero [12] = test: cells; type: functional, cell-based; conditions: Chlorocebus sabaeus
INS1 = test: INS-1E survival protection against cytokine death – cell-based, luminescence, retest, dose response (AID 449756); type: functional; conditions: Rattus norvegicus;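 also: cell death triggered by IL-1 beta plus TNF-alpha plus IFN-gamma mixture; protective hits raise ATP signal compared with cytokine alone wells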
[13] = molecular target: Lysine-specific demethylase 4C (Homo sapiens, UniProt Q9H3R0); test: inhibition of JMJD2C H3K9me3 demethylation – biochemical, DELFIA europium, cherry-picked samples, dose response (AID 488835); type: functional
Genome polyprotein = Genome polyprotein (dengue virus type 2, UniProt P29990); test: flavivirus cap methylation enzyme inhibition – biochemical, confirmation dose response, primary screen (AID 588689); type: functional
[14] = molecular target: T2, Orexin/Hypocretin receptor type 1 (Homo sapiens, UniProt O43613); test: Homogeneous Time Resolved Fluorescence (HTRF)-based cell-based high throughput dose response assay for antagonists of the orexin 1 receptor (OX1R; HCRTR1). [Related pubchem assays (depositor defined):AID434989, AID435008, AID463079, AID485270, AID492963, AID492964, AID492965, AID493232, AID504717, AID504718]; type: functional
T2 sequence (O43613 whole entry): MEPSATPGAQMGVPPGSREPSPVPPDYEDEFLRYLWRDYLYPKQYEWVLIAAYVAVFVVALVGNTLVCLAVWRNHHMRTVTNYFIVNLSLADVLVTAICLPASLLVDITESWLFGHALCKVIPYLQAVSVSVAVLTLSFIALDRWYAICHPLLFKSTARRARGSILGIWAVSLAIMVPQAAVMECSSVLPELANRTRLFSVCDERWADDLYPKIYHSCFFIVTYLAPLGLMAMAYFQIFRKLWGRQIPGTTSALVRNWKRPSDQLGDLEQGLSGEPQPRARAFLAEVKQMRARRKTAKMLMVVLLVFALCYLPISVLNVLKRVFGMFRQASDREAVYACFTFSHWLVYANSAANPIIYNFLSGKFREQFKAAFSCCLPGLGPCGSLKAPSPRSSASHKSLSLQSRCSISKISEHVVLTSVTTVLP

CHO-K1 = test: (§1) Counterscreen for antagonists of the orexin 1 receptor (OX1R; HCRTR1): Homogeneous time resolved fluorescence (HTRF)-based cell-based dose response assay to identify antagonists of the parental CHO-K1 cell line. [Related pubchem assays (depositor defined):AID434989, AID435008, AID463079, AID485270, AID492963, AID492964, AID492965, AID493232, AID504699, AID504701]; type: functional; conditions: Cricetulus griseus
[15] = as §1, with “Fluorescence-based” for “Homogeneous time resolved fluorescence (HTRF)-based”, “cell-based high throughput” for “cell-based”, “CHO” for “CHO-K1”; type: functional
[16] = molecular target: T2, Orexin/Hypocretin receptor type 1; test: Fluorescence-based cell-based high throughput dose response assay for antagonists of the orexin 1 receptor (OX1R; HCRTR1). [Related pubchem assays (depositor defined):AID434989, AID435008, AID463079, AID485270, AID492963, AID492964, AID492965, AID493232, AID504717, AID504718]; type: functional
[17] = Luminescence Cell-Based Dose Response HTS to Identify Activators of 5'UTR Stem-Loop Driven Prion Protein mRNA Translation in H4-C Neuroglioblastoma Cells. [Related pubchem assays: 1829 (Project Summary), 1814 (Primary HTS)]; type: functional
[18] = Luminescence Cell-Based Dose Retest to Confirm Activators of 5'UTR Stem-Loop Driven Alpha-Synuclein mRNA Translation in H4 Neuroglioblastoma Cells. [Related pubchem assays (depositor defined):AID1813, AID1829]; type: functional
[19] = alpha-synuclein stem-loop luciferase translation blockers – H4 neuroglioma cells, luminescence, confirmation (AID 1988); type: functional, cell-based
BJ [20] = test: cells; type: functional, cell-based; conditions: Homo sapiens
[21] = DRD fibroblast viability loss – cell-based, non-viral oncogenic, luminescence, dose response (AID 1934); type: functional; conditions: Homo sapiens
[22] = Luminescence Cell-Based Dose Response HTS to Identify Inhibitors of Luciferase Translation or Activity in H4-C Neuroglioblastoma Cells. [Related pubchem assays: 1813 (Primary HTS), 1827 (Project Summary)]; type: functional
BJ [23] = test: BJ-TERT fibroblast viability loss – cell-based, RAS-independent, luminescence, dose response (AID 1933); type: functional; conditions: Homo sapiens
BJ [24] = test: BJ-TERT-LT-ST fibroblast viability loss – cell-based, RAS-independent, luminescence, dose response (AID 1935); type: functional; conditions: Homo sapiens;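 also: BJ fibroblasts immortalized with TERT plus LT and ST oncogenes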
[25] = luciferase reporter signal suppression in cells – H4 neuroglioma cells, luminescence, dose response (AID 1990); type: functional, cell-based
[26] = Luminescence Cell-Based Dose Confirmation HTS to Identify Inhibitors of 5'UTR Stem-Loop Driven Alpha-Synuclein mRNA Translation in H4 Neuroglioblastoma Cells. [Related pubchem assays: 1827 (Project Summary), 1813 (Primary HTS)]; type: functional
[27] = Luminescence Cell-Based Dose Response HTS to Identify Inhibitors of 5'UTR Stem-Loop Driven Prion Protein mRNA Translation in H4 Neuroglioblastoma Cells. [Related pubchem assays: 1827 (Project Summary), 1813 (Primary HTS)]; type: functional
[28] = Luminescence Cell-Based Dose HTS Response to Identify Inhibitors of 5'UTR Stem-Loop Driven Prion Protein mRNA Translation in H4-C Neuroglioblastoma Cells. [Related pubchem assays (depositor defined):AID1814, AID1827]; type: functional
[29] = Luminescence Cell-Based Dose Response HTS to Identify Activators of Luciferase Translation or Activity in H4-C Neuroglioblastoma Cells. [Related pubchem assays: 1829 (Project Summary), 1814 (Primary HTS)]; type: functional
Streptococcus = test: GAS UMAA2166 growth inhibition – luminescence, BacTiterGlo, counter-screen for streptokinase expression inhibitor project, dose response (AID 1915); type: functional, organism-based;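 also: potency for reduction of bacterial viability or growth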
cells = type: functional
[30] = Vero E6 cell cytotoxicity, dose response, cytotoxicity control for non-replicating M. tuberculosis project, secondary assay (AID 492998); type: functional, VeroE6; conditions: Vero C1008
[31] = HepG2 cell cytotoxicity, dose response, cytotoxicity control for non-replicating M. tuberculosis project (AID 489018); type: functional; conditions: Mycobacterium tuberculosis
[32] = THP-1 cell cytotoxicity, dose response, cytotoxicity control for non-replicating M. tuberculosis project (AID 489025); type: functional
[33] = system: Streptococcus sp. 'group A'; test: Streptococcus pyogenes SK(-)GAS viability under kanamycin – luminescence, BacTiterGlo, confirmation, counter-screen for streptokinase expression inhibitor project, dose response (AID 1900); type: functional, organism-based

T1 sequence (P98170 whole entry): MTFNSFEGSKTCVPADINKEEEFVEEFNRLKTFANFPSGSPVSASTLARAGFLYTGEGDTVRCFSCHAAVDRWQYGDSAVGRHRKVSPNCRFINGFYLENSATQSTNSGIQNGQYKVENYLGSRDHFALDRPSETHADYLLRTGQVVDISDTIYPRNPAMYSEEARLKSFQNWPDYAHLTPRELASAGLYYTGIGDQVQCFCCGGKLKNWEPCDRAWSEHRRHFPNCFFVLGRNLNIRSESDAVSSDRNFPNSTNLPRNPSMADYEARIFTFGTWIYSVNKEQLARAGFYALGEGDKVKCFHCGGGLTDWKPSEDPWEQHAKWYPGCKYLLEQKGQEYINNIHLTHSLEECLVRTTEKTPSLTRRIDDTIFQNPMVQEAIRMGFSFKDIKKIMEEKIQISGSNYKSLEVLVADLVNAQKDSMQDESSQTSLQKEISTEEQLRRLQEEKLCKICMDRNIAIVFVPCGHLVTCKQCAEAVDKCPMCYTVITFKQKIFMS
Chain of Nucleotide-binding oligomerization domain-containing protein 2 (Q9HC29 whole entry, the tested form may be a part): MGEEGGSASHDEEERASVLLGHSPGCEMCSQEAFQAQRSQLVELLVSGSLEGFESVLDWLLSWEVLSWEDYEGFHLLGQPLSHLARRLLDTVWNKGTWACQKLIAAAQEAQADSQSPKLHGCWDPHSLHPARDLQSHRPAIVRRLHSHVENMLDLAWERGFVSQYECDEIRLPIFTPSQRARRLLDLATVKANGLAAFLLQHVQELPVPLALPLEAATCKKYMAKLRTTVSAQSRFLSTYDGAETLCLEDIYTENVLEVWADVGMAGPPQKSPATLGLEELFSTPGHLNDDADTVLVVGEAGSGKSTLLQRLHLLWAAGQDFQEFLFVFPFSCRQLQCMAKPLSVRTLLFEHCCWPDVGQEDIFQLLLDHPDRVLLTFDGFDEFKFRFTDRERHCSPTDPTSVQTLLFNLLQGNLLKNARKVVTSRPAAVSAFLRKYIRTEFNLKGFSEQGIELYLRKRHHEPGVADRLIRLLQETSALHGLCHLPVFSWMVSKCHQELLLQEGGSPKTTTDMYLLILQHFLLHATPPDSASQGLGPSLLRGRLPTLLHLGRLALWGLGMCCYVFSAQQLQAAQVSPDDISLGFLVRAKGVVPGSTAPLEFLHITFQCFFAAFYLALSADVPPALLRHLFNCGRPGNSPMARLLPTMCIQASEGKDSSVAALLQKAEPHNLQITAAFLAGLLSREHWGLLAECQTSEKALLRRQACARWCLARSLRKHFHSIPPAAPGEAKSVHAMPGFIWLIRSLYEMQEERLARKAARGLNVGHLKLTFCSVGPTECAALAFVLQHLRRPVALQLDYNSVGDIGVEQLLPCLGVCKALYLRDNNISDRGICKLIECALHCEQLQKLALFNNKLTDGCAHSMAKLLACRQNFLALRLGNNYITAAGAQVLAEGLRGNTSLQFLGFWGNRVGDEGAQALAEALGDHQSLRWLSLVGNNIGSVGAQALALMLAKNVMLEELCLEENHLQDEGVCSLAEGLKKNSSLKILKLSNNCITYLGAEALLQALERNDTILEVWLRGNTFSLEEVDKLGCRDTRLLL
Chain of Genome polyprotein (P29990 2492-3391 limits assumed): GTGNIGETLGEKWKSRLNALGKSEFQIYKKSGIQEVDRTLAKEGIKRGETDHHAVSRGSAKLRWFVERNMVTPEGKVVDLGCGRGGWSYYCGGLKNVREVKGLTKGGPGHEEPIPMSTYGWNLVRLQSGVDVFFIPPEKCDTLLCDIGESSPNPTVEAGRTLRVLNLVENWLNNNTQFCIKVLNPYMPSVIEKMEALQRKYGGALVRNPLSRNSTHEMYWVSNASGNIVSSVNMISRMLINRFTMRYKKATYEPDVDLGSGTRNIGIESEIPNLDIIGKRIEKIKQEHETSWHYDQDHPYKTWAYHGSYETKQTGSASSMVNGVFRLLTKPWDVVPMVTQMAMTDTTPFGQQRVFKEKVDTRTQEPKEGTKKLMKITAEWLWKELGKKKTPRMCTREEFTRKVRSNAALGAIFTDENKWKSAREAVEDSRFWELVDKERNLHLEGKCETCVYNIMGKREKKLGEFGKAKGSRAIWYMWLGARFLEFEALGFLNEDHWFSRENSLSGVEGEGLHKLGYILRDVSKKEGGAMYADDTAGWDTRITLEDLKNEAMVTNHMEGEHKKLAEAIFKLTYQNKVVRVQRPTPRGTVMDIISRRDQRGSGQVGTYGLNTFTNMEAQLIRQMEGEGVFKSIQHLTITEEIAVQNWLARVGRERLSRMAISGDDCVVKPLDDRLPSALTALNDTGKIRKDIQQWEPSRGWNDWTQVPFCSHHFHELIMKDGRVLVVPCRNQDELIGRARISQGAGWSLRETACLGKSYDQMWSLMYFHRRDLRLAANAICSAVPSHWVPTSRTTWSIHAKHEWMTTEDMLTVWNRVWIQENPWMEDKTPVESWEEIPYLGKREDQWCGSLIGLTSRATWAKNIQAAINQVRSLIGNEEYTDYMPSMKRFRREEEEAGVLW
Chain of Lysine-specific demethylase 4C (Q9H3R0 whole entry): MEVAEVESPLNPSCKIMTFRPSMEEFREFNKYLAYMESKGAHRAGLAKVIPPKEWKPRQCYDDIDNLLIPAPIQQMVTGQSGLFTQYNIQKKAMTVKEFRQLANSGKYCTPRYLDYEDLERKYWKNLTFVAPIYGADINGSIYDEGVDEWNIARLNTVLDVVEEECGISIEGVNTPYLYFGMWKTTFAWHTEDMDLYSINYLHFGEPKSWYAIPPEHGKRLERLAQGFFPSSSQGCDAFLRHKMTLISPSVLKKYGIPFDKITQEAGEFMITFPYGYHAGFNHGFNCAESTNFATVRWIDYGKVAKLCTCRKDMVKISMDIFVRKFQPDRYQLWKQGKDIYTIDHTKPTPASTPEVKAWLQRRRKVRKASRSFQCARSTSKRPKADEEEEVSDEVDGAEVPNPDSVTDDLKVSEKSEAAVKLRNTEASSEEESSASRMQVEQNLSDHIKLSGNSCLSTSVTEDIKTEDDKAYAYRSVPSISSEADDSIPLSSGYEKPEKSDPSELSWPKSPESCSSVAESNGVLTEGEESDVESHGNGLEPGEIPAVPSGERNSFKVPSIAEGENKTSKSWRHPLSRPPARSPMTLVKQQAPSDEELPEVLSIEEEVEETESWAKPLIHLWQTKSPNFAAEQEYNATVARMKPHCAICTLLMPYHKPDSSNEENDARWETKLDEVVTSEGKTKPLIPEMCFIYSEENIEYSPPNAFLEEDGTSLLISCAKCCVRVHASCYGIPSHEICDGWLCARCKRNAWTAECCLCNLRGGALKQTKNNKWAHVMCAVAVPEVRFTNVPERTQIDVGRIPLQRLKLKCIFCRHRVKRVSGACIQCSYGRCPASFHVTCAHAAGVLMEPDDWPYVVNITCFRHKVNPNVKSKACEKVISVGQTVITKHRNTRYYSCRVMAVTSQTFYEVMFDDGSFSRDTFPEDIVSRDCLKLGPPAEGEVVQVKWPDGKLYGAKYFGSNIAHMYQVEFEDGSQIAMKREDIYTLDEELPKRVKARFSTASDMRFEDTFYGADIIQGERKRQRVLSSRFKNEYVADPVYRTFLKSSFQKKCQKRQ
Chain of Paired box protein Pax-8 (Q06710 whole entry): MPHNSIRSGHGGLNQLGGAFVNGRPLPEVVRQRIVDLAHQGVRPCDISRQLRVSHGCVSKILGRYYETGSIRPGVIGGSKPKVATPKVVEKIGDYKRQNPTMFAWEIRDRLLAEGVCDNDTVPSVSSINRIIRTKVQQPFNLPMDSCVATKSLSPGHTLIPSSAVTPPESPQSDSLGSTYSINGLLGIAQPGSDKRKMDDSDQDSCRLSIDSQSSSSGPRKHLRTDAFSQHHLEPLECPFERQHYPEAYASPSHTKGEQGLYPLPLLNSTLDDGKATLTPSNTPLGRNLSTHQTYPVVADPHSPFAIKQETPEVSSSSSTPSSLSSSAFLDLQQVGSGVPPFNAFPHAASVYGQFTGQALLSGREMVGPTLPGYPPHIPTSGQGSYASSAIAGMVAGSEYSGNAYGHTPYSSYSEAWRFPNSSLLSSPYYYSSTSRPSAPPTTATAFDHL

CC(C)(Nc1ccccc1)C(=O)c1ccccc1
> 100 µM (not active): IC50 [1]
inactive: IC50 [2] > 100 µM

C=C(C(=O)c1ccccc1)C(C(=C)C(=O)c1ccccc1)c1ccc(OC)cc1
active: AC50 (Paired box protein Pax-8) 2.66 µM | EC50 [4] 10.4 µM | IC50 (HEK293 [5]) 5.78 µM | EC50 [6] 2.88 µM | CC50 (Vero [9]) 11.2 µM | IC50 (Vero [12]) > 25 µM | AC50 (INS1) 6.58 µM
inactive: EC50 (HEK293 [3]) > 20 µM | IC50 (HEK293 [7]) > 20 µM | EC50 [8] > 20 µM | IC50 (HEK293 [10]) 5.4 µM | IC50 (HEK293 [11]) > 20 µM

Cc1cc(C)cc(OCCOc2cccc(C=C3C(=O)NC(=O)NC3=O)c2)c1
active: IC50 (Genome polyprotein) 46.9 µM
inactive: AC50 [13] > 60 µM

COc1cc2ccccc2cc1C(=O)Nc1ccc(N2CCOCC2)cc1
inactive: IC50 (CHO-K1) > 66.3 µM | IC50 [15] > 49.8 µM | IC50 [16] > 49.8 µM
active: IC50 [14] 8.59 µM

Cc1ccc(-c2cc(C(=O)N/N=C/c3c(C)nn(-c4ccccc4)c3C)[nH]n2)cc1
inconclusive: EC50 [17] 1.28 µM | EC50 [18] 2.09 µM | EC50 (BJ [20]) 2.04 µM | EC50 (BJ [24]) 0.624 µM | EC50 [29] 1.75 µM
active: EC50 [19] 0.327 µM | EC50 [21] 0.576 µM | EC50 [22] 1.01 µM | EC50 (BJ [23]) 0.603 µM | EC50 [25] 7.44 µM | EC50 [26] 10.1 µM | EC50 [27] 14 µM | EC50 [28] 5.9 µM

O=C(NNC(=S)NC(=O)c1cn(-c2ccccc2)nc1-c1ccccc1)c1ccncc1
active: EC50 (Streptococcus) 0.94 µM | IC50 (cells) 2.75 µM | CC50 [30] 10 µM | CC50 [31] > 20 µM | CC50 (Vero [9]) 24.3 µM | CC50 [32] 13.6 µM | IC50 (Vero [12]) 24.4 µM | EC50 [33] 0.239 µM
